Laboratory results published in patent US9675646B2, “Tubular bioengineered smooth muscle structures” (WAKE FOREST UNIVERSITY HEALTH SCIENCES, priority 2012, dated 2017).
Where no end group is shown, it is not given here.

Tested on: rabbit esophageal circular smooth muscle tissue constructs
Experiment: Real time isometric force generation of bioengineered esophageal smooth muscle constructs
Assay type: cell-based
Conditions: isometric force transducer, tissue bath 37° C., constructs taken off chitosan scaffold, stretch baseline set to zero
Source text: Tubular esophageal tissue was tissue-engineered to mimic the mechanical and physiological function of a native esophagus. Several concentrically aligned esophageal circular smooth muscle tissue constructs were bioengineered using collagen hydrogel. Three-dimensional smooth muscle tissue constructs were bioengineered. Rabbit esophageal constructs were bioengineered by laying down 5×10^5 rabbit esophageal circular smooth muscle cells in collagen gel on a Sylgard-coated plate with a central post. The smooth muscle constructs were placed around a 2.5 cm long hollow chitosan tube and biodegradable surgical glue was applied between the smooth muscle constructs and along their circumference. The constructs were maintained around the scaffold in culture for 5 days. The constructs were taken off the scaffold and tested to determine cholinergic contraction in response to Acetylcholine (Ach) and relaxation in response to vasoactive intestinal peptide (VIP). An isometric force transducer (Harvard Apparatus, Holliston, Mass.) was used to record real time force generated by the constructs. The constructs were kept incubated in a warm tissue bath keeping the tissue samples at conditions of 37° C.±1° C. The bioengineered tissue constructs were taken off the scaffold at day 15 for force generation measurement. […]

Molecule	contraction (change in force generation) (FIG. 1) [μN]	relaxation (change in force generation) (FIG. 2) [μN]
CC(=O)OCC[N+](C)(C)C [Ach, Acetylcholine]	45	
vasoactive intestinal peptide (HSDAVFTDNYTRLRKQMAVKKYLNSILN; ends and bridges not checked; UniProt P01282 125-152, looked up) [VIP, relaxant peptide used to test construct relaxation]		−35
